Assay results: PubChem BioAssay AID1259407 (Chemical Carcinogenesis Research Information System (CCRIS), 2018)
Calls of active or inactive are those of the source. How the calls were made is not given here.

System: CCRIS mutagenicity, Ames/micronucleus/aberration tests
Assay: CCRIS mutagenicity studies
[1] = Test System: AMES SALMONELLA TYPHIMURIUM, Strain/Indicator: TA98, Metabolic Activation: NONE, Method: PREINCUBATION
[2] = Test System: AMES SALMONELLA TYPHIMURIUM, Strain/Indicator: TA98, Metabolic Activation: NONE, Method: STANDARD PLATE
[3] = Test System: AMES SALMONELLA TYPHIMURIUM, Strain/Indicator: TA98, Metabolic Activation: RAT, LIVER, S-9, AROCLOR 1254, Method: STANDARD PLATE
[4] = Test System: AMES SALMONELLA TYPHIMURIUM, Strain/Indicator: TA100, Metabolic Activation: NONE, Method: STANDARD PLATE
[5] = Test System: AMES SALMONELLA TYPHIMURIUM, Strain/Indicator: TA100, Metabolic Activation: RAT, LIVER, S-9, AROCLOR 1254, Method: STANDARD PLATE
[6] = Test System: AMES SALMONELLA TYPHIMURIUM, Strain/Indicator: TA1535, Metabolic Activation: NONE, Method: STANDARD PLATE
[7] = Test System: AMES SALMONELLA TYPHIMURIUM, Strain/Indicator: TA1535, Metabolic Activation: RAT, LIVER, S-9, AROCLOR 1254, Method: STANDARD PLATE
[8] = Test System: AMES SALMONELLA TYPHIMURIUM, Strain/Indicator: TA1537, Metabolic Activation: NONE, Method: STANDARD PLATE
[9] = Test System: AMES SALMONELLA TYPHIMURIUM, Strain/Indicator: TA1537, Metabolic Activation: RAT, LIVER, S-9, AROCLOR 1254, Method: STANDARD PLATE
[10] = Test System: AMES SALMONELLA TYPHIMURIUM, Strain/Indicator: TA1538, Metabolic Activation: RAT, LIVER, S-9, AROCLOR 1254, Method: STANDARD PLATE

Measured: mutagenic call

C[C@](N)(Cc1ccc(O)c(O)c1)C(=O)O
inactive: End Point: IN VITRO CHROMOSOMAL ABERRATIONS, Test System: CHO CELLS, Metabolic Activation: NONE inactive; negative | End Point: IN VITRO CHROMOSOMAL ABERRATIONS, Test System: CHO CELLS, Metabolic Activation: RAT, LIVER, S-9, AROCLOR 1254 inactive; negative; testing limited by solubility of the chemical | Test System: AMES SALMONELLA TYPHIMURIUM, Strain/Indicator: TA97, Metabolic Activation: HAMSTER, LIVER, S-9, AROCLOR 1254 (10 OR 30%), Method: PREINCUBATION inactive; negative | Test System: AMES SALMONELLA TYPHIMURIUM, Strain/Indicator: TA97, Metabolic Activation: HAMSTER, LIVER, S-9, AROCLOR 1254, Method: PREINCUBATION inactive; negative | Test System: AMES SALMONELLA TYPHIMURIUM, Strain/Indicator: TA97, Metabolic Activation: NONE, Method: PREINCUBATION inactive; negative | Test System: AMES SALMONELLA TYPHIMURIUM, Strain/Indicator: TA97, Metabolic Activation: RAT, LIVER, S-9, AROCLOR 1254 (10 OR 30%), Method: PREINCUBATION inactive; negative | Test System: AMES SALMONELLA TYPHIMURIUM, Strain/Indicator: TA97, Metabolic Activation: RAT, LIVER, S-9, AROCLOR 1254, Method: PREINCUBATION inactive; negative | Test System: AMES SALMONELLA TYPHIMURIUM, Strain/Indicator: TA98, Metabolic Activation: HAMSTER, LIVER, S-9, AROCLOR 1254 (10%), Method: PREINCUBATION inactive; negative | Test System: AMES SALMONELLA TYPHIMURIUM, Strain/Indicator: TA98, Metabolic Activation: HAMSTER, LIVER, S-9, AROCLOR 1254 (30%), Method: PREINCUBATION inactive; negative | Test System: AMES SALMONELLA TYPHIMURIUM, Strain/Indicator: TA98, Metabolic Activation: HAMSTER, LIVER, S-9, AROCLOR 1254, Method: PREINCUBATION inactive; negative | [1] inactive; negative | Test System: AMES SALMONELLA TYPHIMURIUM, Strain/Indicator: TA98, Metabolic Activation: RAT, LIVER, S-9, AROCLOR 1254 (10%), Method: PREINCUBATION inactive; negative | Test System: AMES SALMONELLA TYPHIMURIUM, Strain/Indicator: TA98, Metabolic Activation: RAT, LIVER, S-9, AROCLOR 1254 (30%), Method: PREINCUBATION inactive; negative | Test System: AMES SALMONELLA TYPHIMURIUM, Strain/Indicator: TA98, Metabolic Activation: RAT, LIVER, S-9, AROCLOR 1254, Method: PREINCUBATION inactive; negative | Test System: AMES SALMONELLA TYPHIMURIUM, Strain/Indicator: TA100, Metabolic Activation: HAMSTER, LIVER, S-9, AROCLOR 1254 (10%), Method: PREINCUBATION inactive; negative | Test System: AMES SALMONELLA TYPHIMURIUM, Strain/Indicator: TA100, Metabolic Activation: HAMSTER, LIVER, S-9, AROCLOR 1254 (30%), Method: PREINCUBATION inactive; negative | Test System: AMES SALMONELLA TYPHIMURIUM, Strain/Indicator: TA100, Metabolic Activation: HAMSTER, LIVER, S-9, AROCLOR 1254, Method: PREINCUBATION inactive; negative | Test System: AMES SALMONELLA TYPHIMURIUM, Strain/Indicator: TA100, Metabolic Activation: NONE, Method: PREINCUBATION inactive; negative | Test System: AMES SALMONELLA TYPHIMURIUM, Strain/Indicator: TA100, Metabolic Activation: RAT, LIVER, S-9, AROCLOR 1254 (10%), Method: PREINCUBATION inactive; negative | Test System: AMES SALMONELLA TYPHIMURIUM, Strain/Indicator: TA100, Metabolic Activation: RAT, LIVER, S-9, AROCLOR 1254 (30%), Method: PREINCUBATION inactive; negative | Test System: AMES SALMONELLA TYPHIMURIUM, Strain/Indicator: TA100, Metabolic Activation: RAT, LIVER, S-9, AROCLOR 1254, Method: PREINCUBATION inactive; negative | Test System: AMES SALMONELLA TYPHIMURIUM, Strain/Indicator: TA1535, Metabolic Activation: HAMSTER, LIVER, S-9, AROCLOR 1254 (10%), Method: PREINCUBATION inactive; negative | Test System: AMES SALMONELLA TYPHIMURIUM, Strain/Indicator: TA1535, Metabolic Activation: HAMSTER, LIVER, S-9, AROCLOR 1254 (30%), Method: PREINCUBATION inactive; negative | Test System: AMES SALMONELLA TYPHIMURIUM, Strain/Indicator: TA1535, Metabolic Activation: HAMSTER, LIVER, S-9, AROCLOR 1254, Method: PREINCUBATION inactive; negative | Test System: AMES SALMONELLA TYPHIMURIUM, Strain/Indicator: TA1535, Metabolic Activation: NONE, Method: PREINCUBATION inactive; negative | Test System: AMES SALMONELLA TYPHIMURIUM, Strain/Indicator: TA1535, Metabolic Activation: RAT, LIVER, S-9, AROCLOR 1254 (10%), Method: PREINCUBATION inactive; negative | Test System: AMES SALMONELLA TYPHIMURIUM, Strain/Indicator: TA1535, Metabolic Activation: RAT, LIVER, S-9, AROCLOR 1254 (30%), Method: PREINCUBATION inactive; negative | Test System: AMES SALMONELLA TYPHIMURIUM, Strain/Indicator: TA1535, Metabolic Activation: RAT, LIVER, S-9, AROCLOR 1254, Method: PREINCUBATION inactive; negative

O=c1c(O)c(C2=CC(O)(CCO)C(O)(CCO)C=C2)oc2c1C(O)=CC(O)(CCO)C2 (centres undefined)
inactive: [2] inactive; negative | [3] inactive; negative | [4] inactive; negative | [5] inactive; negative | [6] inactive; negative | [7] inactive; negative | [8] inactive; negative | [9] inactive; negative | Test System: AMES SALMONELLA TYPHIMURIUM, Strain/Indicator: TA1538, Metabolic Activation: NONE, Method: STANDARD PLATE inactive; negative | [10] inactive; negative

Cc1ccc2ccc([N+](=O)[O-])cc2c1
active: [1] active; positive

CCN(CC)c1ccc(N=Nc2c(Cl)cc([N+](=O)[O-])cc2[N+](=O)[O-])cc1
active: [3] active; positive | [4] active; positive | [5] active; positive | Test System: AMES SALMONELLA TYPHIMURIUM, Strain/Indicator: TA102, Metabolic Activation: RAT, LIVER, S-9, AROCLOR 1254, Method: STANDARD PLATE active; positive | [7] active; positive | [9] active; positive
inactive: [2] inactive; negative | Test System: AMES SALMONELLA TYPHIMURIUM, Strain/Indicator: TA102, Metabolic Activation: NONE, Method: STANDARD PLATE inactive; negative | [6] inactive; negative | [8] inactive; negative | Test System: CHINESE HAMSTER V-79, Strain/Indicator: V-79 (HGPRT)/6-THIOGUANINE, Metabolic Activation: NONE inactive; negative | Test System: CHINESE HAMSTER V-79, Strain/Indicator: V-79 (HGPRT)/6-THIOGUANINE, Metabolic Activation: RAT, LIVER, S-9, AROCLOR 1254 inactive; negative | Test System: CHINESE HAMSTER V-79, Strain/Indicator: V-79/8-AZAGUANINE, Metabolic Activation: RAT, LIVER, S-9, AROCLOR 1254 inactive; negative | Test System: CHINESE HAMSTER V-79, Strain/Indicator: V-79/8-AZAQUANINE, Metabolic Activation: NONE inactive; negative | Test System: UDS RAT HEPATOCYTES, Strain/Indicator: THY INCORP, Metabolic Activation: NONE, Method: AUTORADIOGRAPHY inactive; negative

COC(=O)[C@H]1CS[C@H]2C(Cl)=C(Cl)C(=O)N12
active: [4] active; positive

Cc1cc(-c2ccccc2C)ccc1N
active: [3] active; positive | [5] active; positive | [10] active; positive | Test System: UDS RODENT HEPATOCYTES, Strain/Indicator: THY INCORP (NON-S-PHASE), Method: AUTORADIOGRAPHY active; positive
